Assays:
[1] = system: Molluscum contagiosum; conditions: in vivo; cited from earlier work
[2] = system: common warts; assay: Case treatments of common warts on the hands by topical application (Examples 10-11); assay type: in vivo, human; conditions: Example 11, child, 15%
Source text: A child presented with common verrucae on the dorsum of both hands involving the metacarpal-phalangeal joints for over 3 years. […] After 12 weeks, all warty lesions were gone. Twice a week the warts were gently scrubbed with a stiff nylon bristle brush before application of the tea tree oil emulsion to help remove the dead outer keratinized skin.
A child presented with common warts affecting the palms of both hands resistant to treatment. […] Twice weekly gentle scrubbing with a stiff nylon bristle brush before application of the emulsion to help remove the dead outer keratinized skin was performed.

SMILES	effect on lesions caused by Molluscum contagiosum [1]	outcome of earlier conventional treatment of common warts [2]	outcome of earlier conventional treatment of common warts ([2]; listed as salicylic acid)
Nc1nc2c(ncn2COCCO)c(=O)[nH]1 [acyclovir]	no effect		
O=C(O)c1ccccc1O [Salicyclic acid]		the warts multiplied and spread	failed to eradicate the viral lesions

— patent US7807202B2, “Compositions for treatment of viral-induced skin lesions and methods of using same” (priority 2003, dated 2010)
